Measured values from patent publication US10065990B2, “Cyclic peptide compound, and preparation method, pharmaceutical composition and use thereof” (HANGZHOU GUANYU BIO-MEDICAL CO., LTD, priority 2013, dated 2018).
Like-named read-outs stand apart in the source and are kept apart here.

Legend:
[1] = system: lncap (prostate cancer cells); assay: MTT cancer cell growth inhibition; format: cell-based; settings: Homo sapiens, LNCaP, 72 h, MTT
Method in brief: (§1)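 Three-day compound exposure (final 10^−5–10^−10 M, three replicate wells) of cells seeded at 1500 per well precedes a 4 h MTT incubation at 37° C. Viability is taken from 570 nm absorbance after DMSO solubilisation, and GI50 calculated from it.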

[2] = system: MOLT-4 (human acute lymphoblastic leukemia cells); assay: MTT cancer cell growth inhibition; format: cell-based; settings: Homo sapiens, MOLT-4, 72 h, MTT
Method in brief: as §1

[3] = system: U937 (human leukemia cells); assay: MTT cancer cell growth inhibition; format: cell-based; settings: Homo sapiens, U-937, 72 h, MTT
Method in brief: as §1

[4] = system: DU145 (human prostate cancer cells); assay: MTT cancer cell growth inhibition; format: cell-based; settings: Homo sapiens, DU-145, 72 h, MTT
Method in brief: as §1

[5] = system: A549 (human lung cancer cells); assay: MTT cancer cell growth inhibition; format: cell-based; settings: Homo sapiens, A549, 72 h, MTT
Method in brief: as §1

[6] = system: K562 (human leukemia cells); assay: MTT cancer cell growth inhibition; format: cell-based; settings: Homo sapiens, K562, 72 h, MTT, 72 hours incubation, K562 cells; read-out: GI50 K562
Method in brief: as §1

[7] = system: Bel-7402 (human hepatoma cells); assay: MTT cancer cell growth inhibition; format: cell-based; settings: Homo sapiens, Bel-7402, 72 h, MTT, 72 hours incubation, Bel-7402 cells; read-out: GI50 Bel-7402
Method in brief: as §1

[8] = system: HCC827 (human non-small cell lung cancer cells); assay: MTT cancer cell growth inhibition; format: cell-based; settings: Homo sapiens, HCC827, 72 h, MTT, 72 hours incubation, HCC827 cells; read-out: GI50 HCC827
Method in brief: as §1

[9] = system: H1975 (non-small cell lung adenocarcinoma); assay: MTT cancer cell growth inhibition; format: cell-based; settings: Homo sapiens, NCI-H1975, 72 h, MTT, 72 hours incubation, H1975 cells; read-out: GI50 H1975
Method in brief: as §1

[10] = system: PANC-1 (Pac-1, human pancreatic cancer cells); assay: MTT cancer cell growth inhibition; format: cell-based; settings: Homo sapiens, PANC-1, 72 h, MTT
Method in brief: as §1

[11] = system: MCF-7 (human breast cancer cells); assay: MTT cancer cell growth inhibition; format: cell-based; settings: Homo sapiens, MCF7, 72 h
Method in brief: as §1

HDAC2 = HDAC2 (Homo sapiens, UniProt Q92769); assay: HDAC biochemical activity measurement (fluorescent substrate deacetylation);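 also: HDAC2 enzyme with an acetyl-lysine fluorescent substrate, then developer added, fluorescence read at excitation 360 nm and emission 460 nm, inhibition measured across several compound concentrations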; settings: 37° C. 30 minutes
HDAC2, sequence (Q92769 whole entry, species assumed): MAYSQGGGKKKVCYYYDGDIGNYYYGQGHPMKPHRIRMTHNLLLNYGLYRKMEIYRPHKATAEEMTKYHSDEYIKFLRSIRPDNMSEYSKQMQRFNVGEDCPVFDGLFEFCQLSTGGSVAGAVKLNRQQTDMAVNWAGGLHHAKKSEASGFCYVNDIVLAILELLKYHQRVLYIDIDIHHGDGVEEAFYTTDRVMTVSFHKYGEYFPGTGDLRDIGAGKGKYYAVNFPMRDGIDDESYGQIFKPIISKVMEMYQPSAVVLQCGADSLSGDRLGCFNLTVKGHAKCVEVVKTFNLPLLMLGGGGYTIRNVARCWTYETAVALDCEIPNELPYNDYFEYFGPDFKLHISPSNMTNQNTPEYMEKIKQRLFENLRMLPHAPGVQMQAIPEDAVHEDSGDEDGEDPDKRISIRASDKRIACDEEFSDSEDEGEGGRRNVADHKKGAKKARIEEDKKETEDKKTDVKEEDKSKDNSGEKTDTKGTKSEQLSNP

HDAC11 = biological target: T1, HDAC11 (Homo sapiens, UniProt Q96DB2); assay: as above;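 also: HDAC11 enzyme acting on an acetyl-lysine fluorogenic substrate, then a developer frees the fluorophore, read at excitation 360 nm and emission 460 nm, IC50 over a compound dilution series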
T1 sequence (Q96DB2 1-347): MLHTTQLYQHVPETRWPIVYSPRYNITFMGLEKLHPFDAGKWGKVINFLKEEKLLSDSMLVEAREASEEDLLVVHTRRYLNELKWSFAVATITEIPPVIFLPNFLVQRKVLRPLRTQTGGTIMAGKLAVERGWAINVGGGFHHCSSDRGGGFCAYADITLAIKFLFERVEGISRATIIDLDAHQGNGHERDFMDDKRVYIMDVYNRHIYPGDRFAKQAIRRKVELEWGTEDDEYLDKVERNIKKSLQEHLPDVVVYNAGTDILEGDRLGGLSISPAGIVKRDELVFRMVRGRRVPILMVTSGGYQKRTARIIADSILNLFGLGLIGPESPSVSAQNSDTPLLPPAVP

[12] = lncap cells, 72 hours incubation, read-out: GI50 lnca
[13] = MOLT-4 cells, 72 hours incubation, read-out: GI50 Mol
[14] = U937 cells, 72 hours incubation, read-out: GI50 U93
[15] = DU145 cells, 72 hours incubation, read-out: GI50 Du1
[16] = A549 cells, 72 hours incubation, read-out: GI50 A54
[17] = PANC-1 cells, 72 hours incubation, read-out: GI50 PAN
[18] = MCF-7 cells, 72 hours incubation, read-out: GI50 MCF
[19] = 72 hours incubation, read-out: GI50 lnca
[20] = 72 hours incubation, read-out: GI50 Mol
[21] = 72 hours incubation, read-out: GI50 U93
[22] = 72 hours incubation, read-out: GI50 Du1
[23] = 72 hours incubation, read-out: GI50 A54
[24] = 72 hours incubation, read-out: GI50 PAN
[25] = 72 hours incubation, read-out: GI50 MCF
[26] = read-out: IC50 HDAC11, HDAC11, 37° C. 30 minutes
[27] = 72 hours, present invention, read-out: GI50 lncap, a
[28] = 72 hours, present invention, read-out: GI50 Molt-4, a
[29] = 72 hours, present invention, read-out: GI50 U937, a
[30] = 72 hours, present invention, read-out: GI50 Du145, a
[31] = 72 hours, present invention, read-out: GI50 A549, a
[32] = 72 hours, present invention, read-out: GI50 PANC-1, a
[33] = 72 hours, present invention, read-out: GI50 MCF7, a

| GI50 [1, 12] | GI50 [2, 13] | GI50 [3, 14] | GI50 [5, 16] | GI50 [6] | GI50 [7] | GI50 [8] | GI50 [9] | GI50 [10, 17] | IC50 (HDAC2) | IC50 (HDAC11) | GI50 [1, 19] | GI50 [2, 20] | GI50 [3, 21] | GI50 [4, 22] | GI50 [5, 23] | GI50 [10, 24] | GI50 [11, 25] | IC50 (HDAC11; [26]) | GI50 [1, 27] | further results | Structure (SMILES) |
| --- | --- | --- | --- | --- | --- | --- | --- | --- | --- | --- | --- | --- | --- | --- | --- | --- | --- | --- | --- | --- | --- |
| 0.03 µM | 0.05 µM | 0.09 µM | 0.03 µM | 0.042 µM | 0.035 µM | 0.038 µM | 0.056 µM | 0.01 µM | 0.093 µM | 0.152 µM | – | – | – | – | – | – | – | – | – | GI50 [4, 15]: 0.05 µM; GI50 [11, 18]: 0.08 µM | C/C=C1\NC(=O)c2nc(ccc2SC)CNC(=O)C[C@@H](/C=C/CCS)OC(=O)[C@H](C)NC1=O [Compound 232] |
| – | – | – | – | 0.038 µM | 0.082 µM | 0.082 µM | 0.039 µM | – | 0.056 µM | – | 0.03 µM | 0.03 µM | 0.03 µM | 0.03 µM | 0.03 µM | 0.08 µM | 0.02 µM | 0.084 µM | – | – | C/C=C1\NC(=O)c2nc(ccc2F)CNC(=O)C[C@@H](/C=C/CCSC(=O)CCCCCCC)OC(=O)[C@H](C(C)C)NC1=O [Compound 30] |
| 0.17 µM | 0.03 µM | 0.01 µM | 0.19 µM | 0.055 µM | 0.088 µM | 0.079 µM | 0.021 µM | 0.95 µM | 0.043 µM | 0.067 µM | – | – | – | – | – | – | – | – | 0.17 µM | GI50 [2, 28]: 0.032 µM; GI50 [3, 29]: 0.012 µM; GI50 [4, 15]: 0.09 µM; GI50 [4, 30]: 0.091 µM; GI50 [5, 31]: 0.19 µM; GI50 [10, 32]: 0.95 µM; GI50 [11, 33]: 0.073 µM; GI50 [11, 18]: 0.07 µM | C/C=C1\NC(=O)c2cccc(n2)CNC(=O)C[C@@H](/C=C/CCSC(=O)CCCCCCC)OC(=O)[C@H](CSCC)NC1=O [Compound 242] |
| 0.08 µM | 0.04 µM | 0.05 µM | 0.04 µM | 0.035 µM | 0.035 µM | 0.018 µM | 0.011 µM | 0.08 µM | 0.025 µM | 0.093 µM | – | – | – | – | – | – | – | – | – | GI50 [4, 15]: 0.03 µM; GI50 [11, 18]: 0.07 µM | C/C=C1\NC(=O)c2cc(SC)cc(n2)CNC(=O)C[C@@H](/C=C/CCSC(C)=O)OC(=O)[C@H](CCCCN)NC1=O [Compound 193] |
| – | – | – | – | 0.041 µM | 0.082 µM | 0.054 µM | 0.034 µM | – | 0.017 µM | – | – | 0.02 µM | – | 0.01 µM | 0.05 µM | – | 0.03 µM | 0.011 µM | 0.003 µM | GI50 [2, 28]: 0.021 µM; GI50 [3, 29]: 0.008 µM; GI50 [4, 30]: 0.013 µM; GI50 [5, 31]: 0.052 µM; GI50 [10, 32]: 0.005 µM; GI50 [11, 33]: 0.03 µM | C/C=C1\NC(=O)c2cccc(n2)CNC(=O)C[C@@H](/C=C/CCSC(C)=O)OC(=O)[C@H](C(C)C)NC1=O [Compound 7] |
| 0.01 µM | 0.03 µM | 0.03 µM | 0.01 µM | 0.047 µM | 0.079 µM | 0.066 µM | 0.056 µM | 0.11 µM | 0.021 µM | 0.056 µM | – | – | – | – | – | – | – | – | 0.07 µM | GI50 [2, 28]: 0.018 µM; GI50 [3, 29]: 0.012 µM; GI50 [4, 30]: 0.004 µM; GI50 [5, 31]: 0.036 µM; GI50 [10, 32]: 0.19 µM; GI50 [11, 33]: 0.001 µM | C/C=C1\NC(=O)c2cccc(n2)CNC(=O)C[C@@H](/C=C/CCSC(=O)CCCCCCC)OC(=O)[C@H](CCSC)NC1=O [Compound 240] |
| – | – | – | – | 0.036 µM | 0.084 µM | 0.018 µM | 0.062 µM | – | 0.059 µM | – | 0.2 µM | 0.02 µM | 0.03 µM | 0.01 µM | 0.1 µM | 0.53 µM | 0.4 µM | 0.103 µM | 0.2 µM | GI50 [2, 28]: 0.02 µM; GI50 [3, 29]: 0.003 µM; GI50 [4, 30]: 0.012 µM; GI50 [5, 31]: 0.1 µM; GI50 [10, 32]: 0.53 µM; GI50 [11, 33]: 0.4 µM | C/C=C1\NC(=O)c2cccc(n2)CNC(=O)C[C@@H](/C=C/CCSC(=O)CCCCCCC)OC(=O)[C@H](Cc2ccccc2)NC1=O [Compound 14] |
| – | – | – | – | 0.033 µM | 0.061 µM | 0.061 µM | 0.034 µM | – | 0.331 µM | – | 0.03 µM | 0.03 µM | 0.03 µM | 0.03 µM | 0.02 µM | 0.06 µM | 0.03 µM | 0.276 µM | – | – | C/C=C1\NC(=O)c2nc(ccc2F)CNC(=O)C[C@@H](/C=C/CCSC(C)=O)OC(=O)[C@H](CCCCN)NC1=O [Compound 72] |
| – | – | – | – | 0.039 µM | 0.043 µM | 0.043 µM | 0.029 µM | – | 0.129 µM | 0.672 µM | 0.02 µM | 0.02 µM | 0.02 µM | 0.03 µM | 0.04 µM | 0.04 µM | 0.35 µM | – | – | – | C/C=C1\NC(=O)c2ccc(F)c(n2)CNC(=O)C[C@@H](/C=C/CCSC(C)=O)OC(=O)[C@H](CCCCN)NC1=O [Example 74] |
